According to ChEMBL document CHEMBL1671662, “In vitro activities of telavancin and six comparator agents against anaerobic bacterial isolates” (2009):

Legend:
Type in all cases: functional
[1] = test system: Streptococcus anginosus; assay: Antibacterial activity against Streptococcus anginosus by CLSI M11-A6 agar dilution method in presence of beta-lactamase inhibitor Sulbactam
[2] = test system: Clostridium hathewayi; assay: Antibacterial activity against Clostridium hathewayi by CLSI M11-A6 agar dilution method in presence of beta-lactamase inhibitor Sulbactam; conditions: Hungatella hathewayi
[3] = test system: Prevotella disiens; assay: Antibacterial activity against Prevotella disiens by CLSI M11-A6 agar dilution method in presence of beta-lactamase inhibitor Sulbactam
[4] = test system: Ruminococcus gnavus; assay: Antibacterial activity against Ruminococcus gnavus by CLSI M11-A6 agar dilution method in presence of beta-lactamase inhibitor Sulbactam; conditions: Mediterraneibacter gnavus
[5] = test system: Clostridium sp.; assay: Antibacterial activity against Clostridium sp. by CLSI M11-A6 agar dilution method in presence of beta-lactamase inhibitor Sulbactam

CC1(C)S[C@@H]2[C@H](NC(=O)[C@H](N)c3ccccc3)C(=O)N2[C@H]1C(=O)O [AMPICILLIN]
MIC50 [1]: 0.5 µg/mL
MIC90 [1]: 0.5 µg/mL
MIC50 [2]: 2 µg/mL
MIC90 [2]: 2 µg/mL
MIC50 [3]: ≤ 0.12 µg/mL
MIC90 [3]: 2 µg/mL
MIC50 [4]: ≤ 0.12 µg/mL
MIC90 [4]: 1 µg/mL
MIC50 [5]: 0.25 µg/mL
MIC90 [5]: 1 µg/mL
